Assay results: patent US12673946B2, “Pyrimidin-4(3H)-one derivatives as TRPV4 antagonists” (RaQualia Pharma Inc., priority 2020, dated 2026)

Target: T1, human TRPV4 (Homo sapiens, UniProt Q9HBA0)
T1 construct: host or cells: tetracycline-inducible Flp-In T-REx 293 cells
Assay: Hypotonicity-induced Ca2+ influx (Fluo-4, FDSS)
Type: cell-based
Method: Hypotonicity-Induced Ca^2+ Influx
TRPV4 channel activation/opening results in an influx of Ca^2+ (Liedtke, W. et al., 2000 (NPL 1)). The resulting changes in intracellular calcium are monitored using a Ca^2+ sensitive fluorescent dye Fluo-4 (Invitrogen). Dye loaded cells are treated with the test compounds for 5 minutes prior to the addition of a hypotonic solution and the inhibition of the hypotonicity-induced activation is recorded.
Forty microL of tetracycline-inducible Flp-In T-REx 293 cells (Invitrogen) stably expressing human TRPV4 are seeded onto the poly-D-lysine coated 384-well plate (Corning) at a density of 10,000 cells per well. The following day, TRPV4 expression is induced by adding 0.5 microg/mL tetracycline for 20-24 hours. On the day of the experiment, the media is removed and replaced with 40 microL of dye loading buffer [1 microM Fluo-4 AM (Invitrogen), 0.01% Pluronic F-127, and 20 mM HEPES in Hanks' balanced salt solutions (HBSS; Invitrogen)] and then the cells are incubated for 60 minutes at 25° C. Dye is then removed and replaced with 20 microL of assay buffer (20 mM HEPES in HBSS). Five minutes prior to the fluorescence measurement, 10 microL of test compound is added to the cells. Using the FDSS instrument (Hamamatsu Photonics), 30 microL of hypotonic solution (90 mM D-mannitol and 1.26 mM CaCl2 in ultrapure water) is added 30 seconds after the start of measurement. The calcium flux signal is recorded for a total of 4.5 minutes.

[1] = Flp-In T-REx 293 cells expressing human TRPV4, examples listed under heading 'Human IC50<50 nM'
[2] = Flp-In T-REx 293 cells stably expressing human TRPV4, compounds listed by potency bin (<10 nM Tables 96-1/96-2, <3 nM Table 97)

T1 sequence (Q9HBA0 whole entry): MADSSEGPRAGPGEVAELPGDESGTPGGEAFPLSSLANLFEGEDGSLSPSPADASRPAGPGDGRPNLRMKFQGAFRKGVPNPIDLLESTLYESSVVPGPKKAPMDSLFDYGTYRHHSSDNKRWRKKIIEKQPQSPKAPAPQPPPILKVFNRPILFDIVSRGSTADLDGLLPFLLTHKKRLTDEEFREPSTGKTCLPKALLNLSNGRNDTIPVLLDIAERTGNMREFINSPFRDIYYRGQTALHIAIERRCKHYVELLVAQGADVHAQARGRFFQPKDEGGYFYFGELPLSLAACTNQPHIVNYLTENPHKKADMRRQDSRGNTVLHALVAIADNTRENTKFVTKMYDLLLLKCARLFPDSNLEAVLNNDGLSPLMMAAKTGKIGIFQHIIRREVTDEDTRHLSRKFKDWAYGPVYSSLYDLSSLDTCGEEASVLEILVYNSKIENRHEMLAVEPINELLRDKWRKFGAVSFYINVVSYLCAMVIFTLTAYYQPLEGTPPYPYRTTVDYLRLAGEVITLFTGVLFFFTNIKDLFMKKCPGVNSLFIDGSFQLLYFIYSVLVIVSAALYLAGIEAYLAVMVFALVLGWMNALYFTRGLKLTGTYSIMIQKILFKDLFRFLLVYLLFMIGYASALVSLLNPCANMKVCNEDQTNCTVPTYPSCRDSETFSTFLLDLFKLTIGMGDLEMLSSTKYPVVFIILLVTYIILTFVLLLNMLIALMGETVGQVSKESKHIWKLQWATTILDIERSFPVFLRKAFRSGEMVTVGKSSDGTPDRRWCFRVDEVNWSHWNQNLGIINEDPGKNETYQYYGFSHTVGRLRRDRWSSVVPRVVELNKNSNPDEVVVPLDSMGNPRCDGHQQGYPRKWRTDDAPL

Row | Structure (SMILES) | IC50 [1] [nM] | IC50 [2] [nM]
1 | O=C(C(O)c1cccc(-c2cccc(F)c2)n1)N1CCc2nc(C3(c4ccccc4)CC3)[nH]c(=O)c2C1 (stereo not drawn) [48-10] | < 50 | –
2 | O=C([C@H](O)c1cccc(-c2cc(Cl)cc(C(F)(F)F)c2)c1)N1CCCc2nc(C3(c4ccccc4)CC3)[nH]c(=O)c2C1 [49-36] | < 50 | < 3
3 | O=C(Cc1cccc2ccccc12)N1CCCc2nc(C3(c4cccc(Cl)c4)CC3)[nH]c(=O)c2C1 [17-120] | < 50 | < 10
4 | O=C(C(O)c1cccc(-c2cccc(C3CC3)c2)n1)N1CCc2nc(C3(c4ccccc4)CC3)[nH]c(=O)c2C1 (stereo not drawn) [48-6] | < 50 | < 10
5 | O=C([C@H](O)c1cccc(C(F)(F)F)c1)N1CCCc2nc(C3(c4cc(C(=O)N(C5CCCCC5)C5CCCCC5)cs4)CC3)[nH]c(=O)c2C1 [59-18] | < 50 | < 10
6 | O=C([C@H](O)c1cccc(-c2cc(Cl)cc(C(F)(F)F)c2)c1)N1CCc2nc(C3(c4cccc(Cl)c4)CC3)[nH]c(=O)c2C1 [45-10] | < 50 | < 10
7 | O=C([C@H](O)c1cccc(-c2ccc3cnccc3c2)c1)N1CCc2nc(C3(c4ccccc4)CC3)[nH]c(=O)c2C1 [44-89] | < 50 | –
8 | O=C([C@H](O)c1cccc(C(F)(F)F)c1)N1CCCc2nc(C3(c4cc(-c5cnsc5)cs4)CC3)[nH]c(=O)c2C1 [41-3] | < 50 | < 10
9 | COCCOc1cccc(-c2cccc(C3(c4nc5c(c(=O)[nH]4)CN(C(=O)[C@H](O)c4cccc(Cl)c4)CCC5)CC3)c2)c1 [40-22] | < 50 | < 3
10 | O=C([C@H](O)c1cccc(-c2cccc(C3CC3)c2)c1)N1CCCc2nc(C3(c4cccc(-c5csc6ccccc56)c4)CC3)[nH]c(=O)c2C1 [52-15] | < 50 | < 10
11 | O=C([C@H](O)c1cccc(-c2coc3ccccc23)c1)N1CCCc2nc(C3(c4cccc(Cl)c4)CC3)[nH]c(=O)c2C1 [50-8] | < 50 | < 3
12 | O=C([C@H](O)c1cccc(-c2cc(Cl)cc(OC(F)(F)F)c2)c1)N1CCc2nc(C3(c4ccccc4)CC3)[nH]c(=O)c2C1 [44-98] | < 50 | < 3
13 | O=C(Cc1cccc(-c2cc(F)cc(Cl)c2)c1)N1CCCc2nc(C3(c4cccc(Cl)c4)CC3)[nH]c(=O)c2C1 [57-9] | < 50 | < 10
14 | O=C(Cc1cccc(-c2cccc(C(F)(F)F)c2)c1)N1CCc2nc(C3(c4cccc(Cl)c4)CC3)[nH]c(=O)c2C1 [14-122] | < 50 | < 10
15 | C=C(C)c1cccc(C2(c3nc4c(c(=O)[nH]3)CN(C(=O)[C@H](O)c3cccc(Cl)c3)CCC4)CC2)c1 [40-4, (R)-6-(2-(3-chlorophenyl)-2-hydroxyacetyl)-2-(1-(3-(prop-1-en-2-yl)phenyl)cyclopropyl)-3,5,6,7,8,9-hexahydro-4H-pyrimido[5,4-c]azepin-4-one] | < 50 | < 3
16 | O=C([C@H](O)c1cccc(-c2cccc(Cl)c2)c1)N1CCCc2nc(C3(c4cc(C5CCCCC5)cs4)CC3)[nH]c(=O)c2C1 [54-10] | < 50 | < 10
17 | CC(C)c1cncc(C2(c3nc4c(c(=O)[nH]3)CN(C(=O)C(F)(F)c3cccc(Cl)c3)CC4)CC2)c1 [22-10] | < 50 | –

Row | Structure (SMILES) | IC50 [1] [nM] | IC50 [2] [nM]
18 | O=C([C@H](O)c1cccc(-c2coc3ccccc23)c1)N1CCCc2nc(C3(c4cccc(C5CCCCC5)c4)CC3)[nH]c(=O)c2C1 [52-7] | < 50 | < 10
19 | O=C([C@H](O)c1cccc(C(F)(F)F)c1)N1CCc2nc(C3(c4cc(Br)cs4)CC3)[nH]c(=O)c2C1 [15-9] | < 50 | < 10
20 | O=C([C@H](O)c1cccc(-c2cccc(F)c2)c1)N1CCCc2nc(C3(c4ccccc4)CC3)[nH]c(=O)c2C1 [49-12] | < 50 | < 10
21 | O=C(C(O)c1cccc(-c2ccc(OC(F)(F)F)cc2)c1)N1CCc2nc(C3(c4ccccc4)CC3)[nH]c(=O)c2C1 (stereo not drawn) [44-24] | < 50 | –
22 | O=C(N1CCCc2nc(C3(c4ccccc4)CC3)[nH]c(=O)c2C1)C(F)(F)c1cccc(C(F)(F)F)c1 [20-1] | < 50 | < 3
23 | O=C(N1CCCc2nc(C3(c4cccc(Cl)c4)CC3)[nH]c(=O)c2C1)C(F)(F)c1cccc(Cl)c1 [20-2] | < 50 | < 3
24 | CC(C)c1csc(C2(c3nc4c(c(=O)[nH]3)CN(C(=O)C(O)c3cccc(C(F)(F)F)c3F)CCC4)CC2)c1 (stereo not drawn) [18-16] | < 50 | < 10
25 | O=C([C@H](O)c1cccc(-c2ccc(F)c(Cl)c2)c1)N1CCc2nc(C3(c4cccc(Cl)c4)CC3)[nH]c(=O)c2C1 [45-1] | < 50 | < 3
26 | O=C(Cc1cccc(-c2cccc(C(F)(F)F)c2)c1)N1CCCc2nc(C3(c4cccc(C5CCCCC5)c4)CC3)[nH]c(=O)c2C1 [31-14] | < 50 | < 10
27 | O=C(C(O)c1cccc(-c2cccc(F)c2F)c1)N1CCc2nc(C3(c4ccccc4)CC3)[nH]c(=O)c2C1 (stereo not drawn) [44-44] | < 50 | –
28 | O=C([C@H](O)c1cccc(-c2cccc(OC(F)(F)F)c2)c1)N1CCCc2nc(C3(c4cc(-c5ccccc5)cs4)CC3)[nH]c(=O)c2C1 [18-26] | < 50 | < 10
29 | O=C(Cc1cccc(-c2cccc(C(F)(F)F)c2)c1)N1CCc2nc(C3(c4cccc(C5CCCCC5)c4)CC3)[nH]c(=O)c2C1 [27-4] | < 50 | < 10
30 | O=C(C(O)c1cccc(-c2cccc(OCc3ccccc3)c2)c1)N1CCc2nc(C3(c4ccccc4)CC3)[nH]c(=O)c2C1 (stereo not drawn) [44-119] | < 50 | < 10
31 | O=C([C@H](O)c1cccc(Cl)c1)N1CCCc2nc(C3(c4cccc(-c5cccnc5)c4)CC3)[nH]c(=O)c2C1 [40-3] | < 50 | < 10
32 | CC(C)(C)c1cccc(C(O)C(=O)N2CCc3nc(C4(c5ccccc5)CC4)[nH]c(=O)c3C2)c1 (stereo not drawn) [14-30] | < 50 | –
33 | CC(C)(C)c1cccc(-c2cccc(C(O)C(=O)N3CCc4nc(C5(c6ccccc6)CC5)[nH]c(=O)c4C3)c2)c1 (stereo not drawn) [44-7] | < 50 | < 10
34 | CC(C)(C)c1ccc(-c2cccc(C(O)C(=O)N3CCc4nc(C5(c6ccccc6)CC5)[nH]c(=O)c4C3)c2)cc1 (stereo not drawn) [44-42] | < 50 | –

Other lines, results leading:

Row | IC50 [1] [nM] | IC50 [2] [nM] | Structure (SMILES)
35 | < 50 | < 10 | CN1CCc2cc(-c3cccc(C4(c5nc6c(c(=O)[nH]5)CN(C(=O)[C@H](O)c5cccc(C(F)(F)F)c5)CCC6)CC4)c3)ccc21 [42-50]
36 | < 50 | < 10 | O=C(C(O)c1cccc(S(F)(F)(F)(F)F)c1)N1CCCc2nc(C3(c4cccc(F)c4)CC3)[nH]c(=O)c2C1 (stereo not drawn) [17-32]
37 | < 50 | < 10 | CN(C)C(=O)c1cccc(-c2cccc(C3(c4nc5c(c(=O)[nH]4)CN(C(=O)[C@H](O)c4cccc(C(F)(F)F)c4)CCC5)CC3)c2)c1 [42-31]
38 | < 50 | < 3 | COc1ccc(-c2cccc(C3(c4nc5c(c(=O)[nH]4)CN(C(=O)[C@H](O)c4cccc(C(F)(F)F)c4)CCC5)CC3)c2)cn1 [42-7]
39 | < 50 | < 10 | Cn1ncc2c(-c3cccc(C4(c5nc6c(c(=O)[nH]5)CN(C(=O)[C@H](O)c5cccc(C(F)(F)F)c5)CCC6)CC4)c3)cccc21 [42-24]
40 | < 50 | < 3 | O=C([C@H](O)c1cccc(C(F)(F)F)c1)N1CCCc2nc(C3(c4cccc(C5=CCN(C(=O)[C@H]6CC[C@H](C(F)(F)F)CC6)CC5)c4)CC3)[nH]c(=O)c2C1 [42-77]
41 | < 50 | – | CC(C(=O)N1CCCc2nc(C3(c4ccccc4)CC3)[nH]c(=O)c2C1)c1cccc(C(F)(F)F)c1 (stereo not drawn) [17-46]
42 | < 50 | < 10 | O=C([C@H](O)c1cccc(C(F)(F)F)c1)N1CCc2nc(C3(c4cncc(C5CCCCC5)c4)CC3)[nH]c(=O)c2C1 [28-2]
43 | < 50 | < 3 | N#Cc1ccc(-c2cccc(C3(c4nc5c(c(=O)[nH]4)CN(C(=O)[C@H](O)c4cccc(C(F)(F)F)c4)CCC5)CC3)c2)cn1 [42-55]
44 | < 50 | < 3 | O=C([C@H](O)c1cccc(C(F)(F)F)c1)N1CCCc2nc(C3(c4cccc(C5CCC(F)(F)CC5)c4)CC3)[nH]c(=O)c2C1 [31-2]
45 | < 50 | < 10 | CC(C)c1cccc(C2(c3nc4c(c(=O)[nH]3)CN(C(=O)C(F)(F)c3cccc(C(F)(F)F)c3)CCC4)CC2)c1 [20-6]
46 | < 50 | < 3 | O=C([C@H](O)c1cccc(C(F)(F)F)c1)N1CCCc2nc(C3(c4cc(C5CCC(F)(F)CC5)cs4)CC3)[nH]c(=O)c2C1 [30-3]
47 | < 50 | < 3 | O=C([C@H](O)c1cccc(C(F)(F)F)c1)N1CCCc2nc(C3(c4cccc(-c5ccnc(C(F)(F)F)c5)c4)CC3)[nH]c(=O)c2C1 [42-48]
48 | < 50 | < 3 | O=C([C@H](O)c1cccc(C(F)(F)F)c1)N1CCCc2nc(C3(c4cccc(C5CCN(CC(F)(F)F)CC5)c4)CC3)[nH]c(=O)c2C1 [31-1]
49 | < 50 | < 10 | Cc1ccccc1-c1cccc(C2(c3nc4c(c(=O)[nH]3)CN(C(=O)[C@H](O)c3cccc(C(F)(F)F)c3)CCC4)CC2)c1 [42-60]
